PMC6106931 (Alzheimer's Research & Therapy, 2018)

Assay: Clinical safety, Study ALZ1005
Format: in vivo, human
Conditions: for patients with one or more TEAEs: Caucasian early AD; for Subjects with any TEAE / TEAE: Accidental overdose / TEAE: Anxiety / TEAE: Bladder cancer / TEAE: Conjunctivitis / TEAE: Dementia Alzheimer’s type / TEAE: Depressed mood / TEAE: Dermatitis allergic / TEAE: Dizziness / TEAE: Eczema vesicular / TEAE: Fatigue / TEAE: Gastrointestinal disorders / TEAE: General disorders and administration site conditions / TEAE: Headache / TEAE: Hypertension / TEAE: Infections and infestations / TEAE: Injury, poisoning and procedural complications / TEAE: Insomnia / TEAE: Irritability / TEAE: Musculoskeletal and connective tissue disorders / TEAE: Nasopharyngitis / TEAE: Nausea / TEAE: Neck pain / TEAE: Neoplasms benign, malignant and unspecified / TEAE: Nervous system disorders / TEAE: Post lumbar puncture syndrome / TEAE: Psoriasis / TEAE: Psychiatric disorders / TEAE: Renal and urinary disorders / TEAE: Renal colic / TEAE: Reproductive system and breast disorders / TEAE: Skin and subcutaneous tissue disorders / TEAE: Somnolence / TEAE: Syncope / TEAE: Urticaria / TEAE: Vascular disorders / TEAE: Vulvovaginal candidiasis / TEAE: Vulvovaginal pruritus: MCI due to AD
Procedure: Safety and tolerability were assessed during the study by recording adverse events (AEs), clinically significant abnormalities, clinical laboratory tests, ECG, and vital signs and by performing physical, neurological, and MRI examinations. All enrolled participants were included in the safety analysis population.

C[C@@]1(c2cc(NC(=O)c3ccc(C#N)cn3)ccc2F)C=CSC(N)=N1 [atabecestat]
relevant abnormal neurological finding (10 mg, one participant, day 28): mild ataxia | events considered possibly related to the study drug (50-mg group): urticaria (n = 1) | events considered probably related to the study drug (50-mg group): nausea (n = 1), dementia of Alzheimer’s type (n = 1), headache (n = 1) | tolerability (Caucasian and Japanese, 10 and 50 mg, 4 weeks): well tolerated | patients with one or more TEAEs (10-mg group, 3 of 15 patients): 20.0% | patients with one or more TEAEs (50-mg group, 8 of 16 patients): 50.0% | participants with no microhemosiderin deposits in the brain on MRI at end of treatment (Caucasian, atabecestat groups, 80.6% at baseline): 90.3% | Subjects with any TEAE (10 mg, N=10): ^2 (20.0) n (%) | TEAE: Accidental overdose (10 mg, N=10): ^1 (10.^0) n (%) | TEAE: Anxiety (10 mg, N=10): ^0 n (%) | TEAE: Bladder cancer (10 mg, N=10): ^0 n (%) | TEAE: Conjunctivitis (10 mg, N=10): ^0 n (%) | TEAE: Dementia Alzheimer’s type (10 mg, N=10): ^0 n (%) | TEAE: Depressed mood (10 mg, N=10): ^0 n (%) | TEAE: Dermatitis allergic (10 mg, N=10): ^0 n (%) | TEAE: Dizziness (10 mg, N=10): ^0 n (%) | TEAE: Eczema vesicular (10 mg, N=10): ^0 n (%) | TEAE: Fatigue (10 mg, N=10): ^0 n (%) | TEAE: Gastrointestinal disorders (10 mg, N=10): ^0 n (%) | TEAE: General disorders and administration site conditions (10 mg, N=10): ^0 n (%) | TEAE: Headache (10 mg, N=10): ^0 n (%) | TEAE: Hypertension (10 mg, N=10): ^0 n (%) | TEAE: Infections and infestations (10 mg, N=10): ^0 n (%) | TEAE: Injury, poisoning and procedural complications (10 mg, N=10): ^2 (20.0) n (%) | TEAE: Insomnia (10 mg, N=10): ^0 n (%) | TEAE: Irritability (10 mg, N=10): ^0 n (%) | TEAE: Musculoskeletal and connective tissue disorders (10 mg, N=10): ^0 n (%) | TEAE: Nasopharyngitis (10 mg, N=10): ^0 n (%) | TEAE: Nausea (10 mg, N=10): ^0 n (%) | TEAE: Neck pain (10 mg, N=10): ^0 n (%) | TEAE: Neoplasms benign, malignant and unspecified (10 mg, N=10): ^0 n (%) | TEAE: Nervous system disorders (10 mg, N=10): ^0 n (%) | TEAE: Post lumbar puncture syndrome (10 mg, N=10): ^2 (20.^0) n (%) | TEAE: Psoriasis (10 mg, N=10): ^0 n (%) | TEAE: Psychiatric disorders (10 mg, N=10): ^0 n (%) | TEAE: Renal and urinary disorders (10 mg, N=10): ^0 n (%) | TEAE: Renal colic (10 mg, N=10): ^0 n (%) | TEAE: Reproductive system and breast disorders (10 mg, N=10): ^0 n (%) | TEAE: Skin and subcutaneous tissue disorders (10 mg, N=10): ^0 n (%) | TEAE: Somnolence (10 mg, N=10): ^0 n (%) | TEAE: Syncope (10 mg, N=10): ^0 n (%) | TEAE: Urticaria (10 mg, N=10): ^0 n (%) | TEAE: Vascular disorders (10 mg, N=10): ^0 n (%) | TEAE: Vulvovaginal candidiasis (10 mg, N=10): ^0 n (%) | TEAE: Vulvovaginal pruritus (10 mg, N=10): ^0 n (%) | Subjects with any TEAE (50 mg, N=10): ^6 (60.0) n (%) | TEAE: Accidental overdose (50 mg, N=10): ^1 (10.^0) n (%) | TEAE: Anxiety (50 mg, N=10): ^1 (10.^0) n (%) | TEAE: Bladder cancer (50 mg, N=10): ^0 n (%) | TEAE: Conjunctivitis (50 mg, N=10): ^0 n (%) | TEAE: Dementia Alzheimer’s type (50 mg, N=10): ^1 (10.^0) n (%) | TEAE: Depressed mood (50 mg, N=10): ^1 (10.^0) n (%) | TEAE: Dermatitis allergic (50 mg, N=10): ^1 (10.^0) n (%) | TEAE: Dizziness (50 mg, N=10): ^0 n (%) | TEAE: Eczema vesicular (50 mg, N=10): ^1 (10.^0) n (%) | TEAE: Fatigue (50 mg, N=10): ^0 n (%) | TEAE: Gastrointestinal disorders (50 mg, N=10): ^1 (10.0) n (%) | TEAE: General disorders and administration site conditions (50 mg, N=10): ^0 n (%) | TEAE: Headache (50 mg, N=10): ^1 (10.^0) n (%) | TEAE: Hypertension (50 mg, N=10): ^0 n (%) | TEAE: Infections and infestations (50 mg, N=10): ^1 (10.^0) n (%) | TEAE: Injury, poisoning and procedural complications (50 mg, N=10): ^2 (20.^0) n (%) | TEAE: Insomnia (50 mg, N=10): ^0 n (%) | TEAE: Irritability (50 mg, N=10): ^1 (10.^0) n (%) | TEAE: Musculoskeletal and connective tissue disorders (50 mg, N=10): ^1 (10.^0) n (%) | TEAE: Nasopharyngitis (50 mg, N=10): ^0 n (%) | TEAE: Nausea (50 mg, N=10): ^1 (10·^0) n (%) | TEAE: Neck pain (50 mg, N=10): ^1 (10.^0) n (%) | TEAE: Neoplasms benign, malignant and unspecified (50 mg, N=10): ^0 n (%) | TEAE: Nervous system disorders (50 mg, N=10): ^2 (^20^.0) n (%) | TEAE: Post lumbar puncture syndrome (50 mg, N=10): ^1 (10.^0) n (%) | TEAE: Psoriasis (50 mg, N=10): ^0 n (%) | TEAE: Psychiatric disorders (50 mg, N=10): ^2 (^20^.0) n (%) | TEAE: Renal and urinary disorders (50 mg, N=10): ^1 (10.^0) n (%) | TEAE: Renal colic (50 mg, N=10): ^1 (10.^0) n (%) | TEAE: Reproductive system and breast disorders (50 mg, N=10): ^1 (10.^0) n (%) | TEAE: Skin and subcutaneous tissue disorders (50 mg, N=10): ^2 (^20^.0) n (%) | TEAE: Somnolence (50 mg, N=10): ^0 n (%) | TEAE: Syncope (50 mg, N=10): ^0 n (%) | TEAE: Urticaria (50 mg, N=10): ^0 n (%) | TEAE: Vascular disorders (50 mg, N=10): ^0 n (%) | TEAE: Vulvovaginal candidiasis (50 mg, N=10): ^1 (10.^0) n (%) | TEAE: Vulvovaginal pruritus (50 mg, N=10): ^1 (10.^0) n (%) | Subjects with any TEAE (JNJ-54861911 total, N=20): ^8 (40.0) n (%) | TEAE: Accidental overdose (JNJ-54861911 total, N=20): ^2 (10.0) n (%) | TEAE: Anxiety (JNJ-54861911 total, N=20): ^1 (5.0) n (%) | TEAE: Bladder cancer (JNJ-54861911 total, N=20): ^0 n (%) | TEAE: Conjunctivitis (JNJ-54861911 total, N=20): ^0 n (%) | TEAE: Dementia Alzheimer’s type (JNJ-54861911 total, N=20): ^1 (5.0) n (%) | TEAE: Depressed mood (JNJ-54861911 total, N=20): ^1 (5.0) n (%) | TEAE: Dermatitis allergic (JNJ-54861911 total, N=20): ^1 (5.0) n (%) | TEAE: Dizziness (JNJ-54861911 total, N=20): ^0 n (%) | TEAE: Eczema vesicular (JNJ-54861911 total, N=20): ^1 (5.0) n (%) | TEAE: Fatigue (JNJ-54861911 total, N=20): ^0 n (%) | TEAE: Gastrointestinal disorders (JNJ-54861911 total, N=20): ^1 (5.0) n (%) | TEAE: General disorders and administration site conditions (JNJ-54861911 total, N=20): ^0 n (%) | TEAE: Headache (JNJ-54861911 total, N=20): ^1 (5.0) n (%) | TEAE: Hypertension (JNJ-54861911 total, N=20): ^0 n (%) | TEAE: Infections and infestations (JNJ-54861911 total, N=20): ^1 (5.0) n (%) | TEAE: Injury, poisoning and procedural complications (JNJ-54861911 total, N=20): ^4 (20.0) n (%) | TEAE: Insomnia (JNJ-54861911 total, N=20): ^0 n (%) | TEAE: Irritability (JNJ-54861911 total, N=20): ^1 (5.0) n (%) | TEAE: Musculoskeletal and connective tissue disorders (JNJ-54861911 total, N=20): ^1 (5.0) n (%) | TEAE: Nasopharyngitis (JNJ-54861911 total, N=20): ^0 n (%) | TEAE: Nausea (JNJ-54861911 total, N=20): ^1 (5.0) n (%) | TEAE: Neck pain (JNJ-54861911 total, N=20): ^1 (5.0) n (%) | TEAE: Neoplasms benign, malignant and unspecified (JNJ-54861911 total, N=20): ^0 n (%) | TEAE: Nervous system disorders (JNJ-54861911 total, N=20): ^2 (10.0) n (%) | TEAE: Post lumbar puncture syndrome (JNJ-54861911 total, N=20): ^3 (15.0) n (%)
